Consider four compounds from ChEMBL document CHEMBL4627374, “Psathyrins: Antibacterial Diterpenoids from Psathyrella candolleana” (2020).

What all share (type): functional
The test system of test [1] is Salmonella enterica subsp. enterica. Kind of test: Antibacterial activity against Salmonella enterica subsp. enterica ATCC 14028 incubated for 24 hrs by photometry. The conditions noted are these: ATCC 14028, 24 h.
The next test deals with Pseudomonas aeruginosa. Kind of test: Antibacterial activity against Pseudomonas aeruginosa ATCC 27853 incubated for 24 hrs by photometry. The conditions noted are these: ATCC 27853, 24 h.
The test system of the next test is Staphylococcus aureus. Kind of test: Antibacterial activity against Staphylococcus aureus subsp. aureus ATCC 29213 incubated for 24 hrs by photometry. The conditions noted are these: ATCC 29213, 24 h.

Converted amounts (≈) assume the structure as drawn.

The MIC50 is the lowest concentration that inhibits either 50% of growth or 50% of the strains tested, depending on the study. Lower therefore signals greater potency. Regarding `CC(C)[C@H]1CC(=O)[C@]23[C@@H]4C=C(CO)C[C@@H](O)[C@@H]4[C@@]2(C)CC[C@]13C`, the MIC50 in test [1] was 77.9 µg/mL (≈ 245 µM); with Pseudomonas aeruginosa, above 128 µg/mL; in the test with Staphylococcus aureus, 14.3 µg/mL (≈ 44.9 µM).

In the case of `CC1(C)S[C@@H]2[C@H](NC(=O)Cc3ccccc3)C(=O)N2C1C(=O)[O-].[Na+]` (some centres undefined), the MIC50 in test [1] came out at 1.32 µg/mL; against Staphylococcus aureus it was 0.81 µg/mL.

Turning to `C[C@H](CO)[C@H]1CC(=O)C23[C@@H]4C=C(CO)CC[C@@H]4[C@@]2(C)CC[C@]13C` (some centres undefined), the MIC50 in test [1] was 102 µg/mL (≈ 319 µM); with Pseudomonas aeruginosa, above 128 µg/mL; with Staphylococcus aureus, 22.7 µg/mL (≈ 71.3 µM).

Turning to `CC(C)(O/N=C(\C(=O)N[C@@H]1C(=O)N2C(C(=O)[O-])=C(C[n+]3ccccc3)CS[C@H]12)c1csc(N)n1)C(=O)O` [CEFTAZIDIME], the MIC50 with Pseudomonas aeruginosa was determined as 0.08 µg/mL (≈ 0.146 µM).
